According to PubChem BioAssay (NCI):
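Briefly, cells in 96-well plates were exposed to five compound concentrations for 48 h, and endpoints were estimated by linear interpolation. TGI marks complete inhibition of growth.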

Key:
Test in all cases: inhibition of tumour cell growth, NCI panel, 48 h
NCI-H460 lung = test system: NCI-H460 lung
ACHN renal = test system: ACHN renal
UO-31 renal = test system: UO-31 renal
RXF 393 renal = test system: RXF 393 renal
SK-MEL-2 melanoma = test system: SK-MEL-2 melanoma
NCI-H226 lung = test system: NCI-H226 lung
HCT-15 colon = test system: HCT-15 colon
NCI-H522 lung = test system: NCI-H522 lung
HL-60(TB) leukemia = test system: HL-60(TB) leukemia
T-47D breast = test system: T-47D breast
HT29 colon = test system: HT29 colon
SR leukemia = test system: SR leukemia
UACC-62 melanoma = test system: UACC-62 melanoma
BT-549 breast = test system: BT-549 breast
MCF7 breast = test system: MCF7 breast
COLO 205 colon = test system: COLO 205 colon
PC-3 prostate = test system: PC-3 prostate
U251 CNS = test system: U251 CNS
M14 melanoma = test system: M14 melanoma
DU-145 prostate = test system: DU-145 prostate
NCI/ADR-RES ovarian = test system: NCI/ADR-RES ovarian
SF-295 CNS = test system: SF-295 CNS
HS 578T breast = test system: HS 578T breast
LOX IMVI melanoma = test system: LOX IMVI melanoma
OVCAR-4 ovarian = test system: OVCAR-4 ovarian
MALME-3M melanoma = test system: MALME-3M melanoma
CAKI-1 renal = test system: CAKI-1 renal
SK-OV-3 ovarian = test system: SK-OV-3 ovarian
EKVX NSCLC = test system: EKVX NSCLC
SW-620 colon = test system: SW-620 colon
OVCAR-5 ovarian = test system: OVCAR-5 ovarian
SN12C renal = test system: SN12C renal
RPMI-8226 leukemia = test system: RPMI-8226 leukemia
NCI-H23 lung = test system: NCI-H23 lung
HCC-2998 colon = test system: HCC-2998 colon
SF-268 CNS = test system: SF-268 CNS
MDA-N = test system: MDA-N
IGROV1 ovarian = test system: IGROV1 ovarian
A549 NSCLC = test system: A549 NSCLC
786-0 renal = test system: 786-0 renal
SK-MEL-28 melanoma = test system: SK-MEL-28 melanoma
HOP-92 NSCLC = test system: HOP-92 NSCLC
OVCAR-3 ovarian = test system: OVCAR-3 ovarian
SNB-19 CNS = test system: SNB-19 CNS
HCT-116 colon = test system: HCT-116 colon
UACC-257 melanoma = test system: UACC-257 melanoma
MDA-MB-231 breast = test system: MDA-MB-231 breast
HOP-62 NSCLC = test system: HOP-62 NSCLC
TK-10 renal = test system: TK-10 renal
MDA-MB-435 = test system: MDA-MB-435
A498 renal = test system: A498 renal
SF-539 CNS = test system: SF-539 CNS
OVCAR-8 ovarian = test system: OVCAR-8 ovarian
KM12 colon = test system: KM12 colon
K-562 leukemia = test system: K-562 leukemia
MOLT-4 leukemia = test system: MOLT-4 leukemia
CCRF-CEM leukemia = test system: CCRF-CEM leukemia
SK-MEL-5 melanoma = test system: SK-MEL-5 melanoma

## CO[C@@H]1C[C@H](OC(N)=O)[C@@H]2C=C[C@@H]3/C=C(C)/C=C/[C@@H](C)[C@H]([C@H](C)[C@H](O)[C@@H](C)NC(C)=O)OC(=O)/C=C/C=C(C)\C=C\[C@]3(C)[C@@H]2C1
NCI-H460 lung
  TGI: 1.58 µM
ACHN renal
  TGI: 2.67 µM
UO-31 renal
  TGI: 0.645 µM
RXF 393 renal
  TGI: 3.06 µM
SK-MEL-2 melanoma
  TGI: 7.09 µM
NCI-H226 lung
  TGI: < 0.01 µM
HCT-15 colon
  TGI: 6.77 µM
NCI-H522 lung
  TGI: 1.44 µM
HL-60(TB) leukemia
  TGI: 3.32 µM
T-47D breast
  TGI: 11 µM
HT29 colon
  TGI: 1.93 µM
SR leukemia
  TGI: 0.887 µM
UACC-62 melanoma
  TGI: 1.4 µM
BT-549 breast
  TGI: > 28.5 µM
MCF7 breast
  TGI: 11.3 µM
COLO 205 colon
  TGI: 11.1 µM
PC-3 prostate
  TGI: 10.8 µM
U251 CNS
  TGI: 1.61 µM
M14 melanoma
  TGI: 1.62 µM
DU-145 prostate
  TGI: 9.01 µM
NCI/ADR-RES ovarian
  TGI: 6.11 µM
SF-295 CNS
  TGI: 1.51 µM
HS 578T breast
  TGI: 0.264 µM
LOX IMVI melanoma
  TGI: < 0.01 µM
OVCAR-4 ovarian
  TGI: 9.75 µM
MALME-3M melanoma
  TGI: 3.53 µM
CAKI-1 renal
  TGI: 2.67 µM
SK-OV-3 ovarian
  TGI: 3.66 µM
EKVX NSCLC
  TGI: 5.34 µM
SW-620 colon
  TGI: 10.3 µM
OVCAR-5 ovarian
  TGI: 9.19 µM
SN12C renal
  TGI: 8.72 µM
RPMI-8226 leukemia
  TGI: 3.78 µM
NCI-H23 lung
  TGI: 13.1 µM
HCC-2998 colon
  TGI: 1.39 µM
SF-268 CNS
  TGI: 4.95 µM
MDA-N
  TGI: 6.03 µM
IGROV1 ovarian
  TGI: 3.28 µM
A549 NSCLC
  TGI: 10 µM
786-0 renal
  TGI: 6.62 µM
SK-MEL-28 melanoma
  TGI: 1.84 µM
HOP-92 NSCLC
  TGI: < 0.01 µM
OVCAR-3 ovarian
  TGI: 3.65 µM
SNB-19 CNS
  TGI: 17.7 µM
HCT-116 colon
  TGI: 1.25 µM
UACC-257 melanoma
  TGI: 3.04 µM
MDA-MB-231 breast
  TGI: 0.0634 µM
HOP-62 NSCLC
  TGI: 4.81 µM
TK-10 renal
  TGI: 3.55 µM
MDA-MB-435
  TGI: 4.36 µM
A498 renal
  TGI: 0.496 µM
SF-539 CNS
  TGI: 1.46 µM
OVCAR-8 ovarian
  TGI: 13.6 µM

## CN(C)CCCNC(=O)c1cc2/c(=C\c3ccc(N(C)C)cc3)c3ccccc3n2[n+]1C
NCI-H460 lung
  TGI: > 100 µM
ACHN renal
  TGI: > 100 µM
UO-31 renal
  TGI: > 100 µM
RXF 393 renal
  TGI: > 100 µM
SK-MEL-2 melanoma
  TGI: 35.6 µM
HCT-15 colon
  TGI: > 100 µM
NCI-H522 lung
  TGI: 10.9 µM
HL-60(TB) leukemia
  TGI: 46 µM
T-47D breast
  TGI: 15.9 µM
HT29 colon
  TGI: 82.8 µM
SR leukemia
  TGI: 54.1 µM
UACC-62 melanoma
  TGI: 34 µM
BT-549 breast
  TGI: > 100 µM
KM12 colon
  TGI: 61.6 µM
MCF7 breast
  TGI: 50.7 µM
K-562 leukemia
  TGI: 35.4 µM
COLO 205 colon
  TGI: 21.3 µM
PC-3 prostate
  TGI: > 100 µM
U251 CNS
  TGI: 69.2 µM
M14 melanoma
  TGI: 39 µM
DU-145 prostate
  TGI: > 100 µM
NCI/ADR-RES ovarian
  TGI: > 100 µM
SF-295 CNS
  TGI: > 100 µM
HS 578T breast
  TGI: > 100 µM
LOX IMVI melanoma
  TGI: > 100 µM
MOLT-4 leukemia
  TGI: > 100 µM
OVCAR-4 ovarian
  TGI: 21.4 µM
MALME-3M melanoma
  TGI: 38.4 µM
CAKI-1 renal
  TGI: > 100 µM
SK-OV-3 ovarian
  TGI: > 100 µM
CCRF-CEM leukemia
  TGI: 90.1 µM
EKVX NSCLC
  TGI: 39.7 µM
SW-620 colon
  TGI: > 100 µM
SK-MEL-5 melanoma
  TGI: 31.3 µM
OVCAR-5 ovarian
  TGI: > 100 µM
SN12C renal
  TGI: 13.5 µM
RPMI-8226 leukemia
  TGI: 53.6 µM
NCI-H23 lung
  TGI: 59.5 µM
SF-268 CNS
  TGI: 90.9 µM
MDA-N
  TGI: 78.4 µM
IGROV1 ovarian
  TGI: 37.1 µM
A549 NSCLC
  TGI: > 100 µM
786-0 renal
  TGI: > 100 µM
SK-MEL-28 melanoma
  TGI: 74.8 µM
HOP-92 NSCLC
  TGI: 56.4 µM
OVCAR-3 ovarian
  TGI: 52.2 µM
SNB-19 CNS
  TGI: > 100 µM
HCT-116 colon
  TGI: 64.2 µM
UACC-257 melanoma
  TGI: 51.3 µM
MDA-MB-231 breast
  TGI: 64.4 µM
HOP-62 NSCLC
  TGI: > 100 µM
TK-10 renal
  TGI: > 100 µM
MDA-MB-435
  TGI: 58.7 µM
A498 renal
  TGI: > 100 µM
SF-539 CNS
  TGI: 39.4 µM
OVCAR-8 ovarian
  TGI: > 100 µM

## CC(=O)NCCC1CNc2ccccc21 (stereo not given)
NCI-H460 lung
  TGI: > 100 µM
ACHN renal
  TGI: > 100 µM
UO-31 renal
  TGI: > 100 µM
RXF 393 renal
  TGI: > 100 µM
SK-MEL-2 melanoma
  TGI: > 100 µM
NCI-H226 lung
  TGI: > 100 µM
HCT-15 colon
  TGI: > 100 µM
NCI-H522 lung
  TGI: > 100 µM
HL-60(TB) leukemia
  TGI: > 100 µM
T-47D breast
  TGI: > 100 µM
HT29 colon
  TGI: > 100 µM
SR leukemia
  TGI: > 100 µM
UACC-62 melanoma
  TGI: > 100 µM
BT-549 breast
  TGI: > 100 µM
KM12 colon
  TGI: > 100 µM
MCF7 breast
  TGI: > 100 µM
K-562 leukemia
  TGI: > 100 µM
COLO 205 colon
  TGI: > 100 µM
PC-3 prostate
  TGI: > 100 µM
U251 CNS
  TGI: > 100 µM
M14 melanoma
  TGI: > 100 µM
DU-145 prostate
  TGI: > 100 µM
NCI/ADR-RES ovarian
  TGI: > 100 µM
SF-295 CNS
  TGI: > 100 µM
HS 578T breast
  TGI: > 100 µM
LOX IMVI melanoma
  TGI: > 100 µM
MOLT-4 leukemia
  TGI: > 100 µM
OVCAR-4 ovarian
  TGI: > 100 µM
MALME-3M melanoma
  TGI: > 100 µM
CAKI-1 renal
  TGI: > 100 µM
SK-OV-3 ovarian
  TGI: > 100 µM
CCRF-CEM leukemia
  TGI: > 100 µM
EKVX NSCLC
  TGI: > 100 µM
SW-620 colon
  TGI: > 100 µM
SK-MEL-5 melanoma
  TGI: > 100 µM
OVCAR-5 ovarian
  TGI: > 100 µM
SN12C renal
  TGI: > 100 µM
RPMI-8226 leukemia
  TGI: > 100 µM
NCI-H23 lung
  TGI: > 100 µM
HCC-2998 colon
  TGI: > 100 µM
SF-268 CNS
  TGI: > 100 µM
MDA-N
  TGI: > 100 µM
IGROV1 ovarian
  TGI: > 100 µM
A549 NSCLC
  TGI: > 100 µM
SK-MEL-28 melanoma
  TGI: > 100 µM
HOP-92 NSCLC
  TGI: > 100 µM
OVCAR-3 ovarian
  TGI: > 100 µM
SNB-19 CNS
  TGI: > 100 µM
HCT-116 colon
  TGI: > 100 µM
UACC-257 melanoma
  TGI: > 100 µM
MDA-MB-231 breast
  TGI: > 100 µM
TK-10 renal
  TGI: > 100 µM
MDA-MB-435
  TGI: > 100 µM
A498 renal
  TGI: > 100 µM
SF-539 CNS
  TGI: > 100 µM
OVCAR-8 ovarian
  TGI: > 100 µM
